pKi: −log10 of the molar value. Activity calls are given as the source filed them. No cut-off for these calls is given here.
Key:
[1] = biological target: D(2) dopamine receptor (Rattus norvegicus, UniProt P61169); experiment: Displacement of [3H]nemonapride from dopamine D2 receptor in rat forebrain
[2] = biological target: D(1A) dopamine receptor (Rattus norvegicus, UniProt P18901); experiment: Displacement of [3H]SCH23390 from dopamine D1 receptor in rat forebrain
[3] = Selectivity ratio of Ki for dopamine D1 receptor to Ki for dopamine D2 receptor in rat forebrain
[4] = tested on: Rattus norvegicus; experiment: Toxicity in adult rat assessed as induction of sedation at 4 umol/kg, ip after 12 to 20 hrs; assay type: organism-based; details: in vivo
[5] = tested on: Rattus norvegicus; experiment: Induction of locomotor activity in adult rat at 4 umol/kg, ip after 12 to 24 hrs; assay type: functional, organism-based

Chain of D(1A) dopamine receptor (P18901 whole entry): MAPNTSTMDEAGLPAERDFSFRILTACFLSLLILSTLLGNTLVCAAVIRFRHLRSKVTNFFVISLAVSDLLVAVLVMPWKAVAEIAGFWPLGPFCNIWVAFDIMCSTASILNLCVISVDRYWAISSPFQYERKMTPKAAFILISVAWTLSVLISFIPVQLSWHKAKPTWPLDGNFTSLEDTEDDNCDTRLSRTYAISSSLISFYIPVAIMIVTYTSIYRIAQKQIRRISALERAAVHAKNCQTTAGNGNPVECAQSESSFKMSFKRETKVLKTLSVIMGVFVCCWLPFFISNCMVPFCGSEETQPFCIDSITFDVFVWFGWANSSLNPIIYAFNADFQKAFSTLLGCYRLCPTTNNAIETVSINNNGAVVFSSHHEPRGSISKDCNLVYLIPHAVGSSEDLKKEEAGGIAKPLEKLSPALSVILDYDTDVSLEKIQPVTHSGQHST
Chain of D(2) dopamine receptor (P61169 whole entry): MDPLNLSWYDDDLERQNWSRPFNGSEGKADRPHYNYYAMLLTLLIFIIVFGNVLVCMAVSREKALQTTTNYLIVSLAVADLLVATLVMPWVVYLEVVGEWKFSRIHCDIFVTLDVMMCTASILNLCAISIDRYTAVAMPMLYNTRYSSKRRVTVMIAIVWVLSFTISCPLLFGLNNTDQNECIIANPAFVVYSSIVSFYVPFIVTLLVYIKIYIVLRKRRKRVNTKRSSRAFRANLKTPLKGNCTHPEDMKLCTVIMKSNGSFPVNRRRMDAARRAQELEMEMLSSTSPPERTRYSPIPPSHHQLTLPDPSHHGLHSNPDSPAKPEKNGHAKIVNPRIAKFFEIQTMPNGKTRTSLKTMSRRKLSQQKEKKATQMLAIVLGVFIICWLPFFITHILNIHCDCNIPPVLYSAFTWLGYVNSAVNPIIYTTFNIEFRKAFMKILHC

Row | Structure (SMILES) | pKi [1] | pKi [2] | ratio [3] | Activity [4] | Activity [5]
1 | COc1cc2c3c(c1)-c1c(cccc1OC(C)=O)C[C@H]3N(C)CC2 | 6.78 | 6.28 | 3 | – | –
2 | CCCCC(=O)Oc1cccc2c1-c1cccc3c1[C@@H](C2)N(CCC)CC3 | – | < 4.70 | > 58 | – | –
3 | CCCCC(=O)Oc1cccc2c1-c1cc(OC)cc3c1[C@@H](C2)N(C)CC3 | 6.72 | 5.83 | 8 | – | –
4 | CN1CCc2cccc3c2[C@H]1Cc1ccc(O)c(O)c1-3 [APOMORPHINE] | – | – | 532 | – | –
5 | CCCCC(=O)Oc1cccc2c1-c1cc(OC)cc3c1[C@@H](C2)N(CCC)CC3 | 7.05 | < 5.00 | > 112 | Toxic | inactive
6 | CCCN1CCc2cc(OC)cc3c2[C@H]1Cc1cccc(O)c1-3 | – | – | 38 | – | –
7 | CCCN1CCc2cc(OC)cc3c2[C@H]1Cc1cccc(OC(C)=O)c1-3 | 7.72 | < 5.00 | > 529 | – | Active
8 | CCCN1CCc2cccc3c2[C@H]1Cc1cccc(OC(C)=O)c1-3 | – | < 5.00 | > 138 | – | –
9 | COc1cc2c3c(c1)-c1c(O)cccc1C[C@H]3N(C)CC2 | – | – | 0.2 | – | –
